From patent US20220298141A1, “ENZYME INHIBITORS” (KALVISTA PHARMACEUTICALS LIMITED, priority 2019, published 2022)
One block for each compound: values may come before it.

Molecular target: T1, Human Factor XIIa (Homo sapiens, UniProt P00748)
T1 construct: purchased Enzyme Research Laboratories
T1 sequence (P00748 373-615 limits assumed): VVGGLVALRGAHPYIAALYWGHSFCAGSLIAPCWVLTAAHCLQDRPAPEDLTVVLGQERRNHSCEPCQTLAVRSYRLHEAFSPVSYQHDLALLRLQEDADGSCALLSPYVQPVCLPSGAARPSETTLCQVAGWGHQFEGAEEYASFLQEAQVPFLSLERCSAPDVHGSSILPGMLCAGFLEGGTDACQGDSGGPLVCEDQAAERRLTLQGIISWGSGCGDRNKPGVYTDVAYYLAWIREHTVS
T1 sequence (P00748 20-372 partner limits assumed): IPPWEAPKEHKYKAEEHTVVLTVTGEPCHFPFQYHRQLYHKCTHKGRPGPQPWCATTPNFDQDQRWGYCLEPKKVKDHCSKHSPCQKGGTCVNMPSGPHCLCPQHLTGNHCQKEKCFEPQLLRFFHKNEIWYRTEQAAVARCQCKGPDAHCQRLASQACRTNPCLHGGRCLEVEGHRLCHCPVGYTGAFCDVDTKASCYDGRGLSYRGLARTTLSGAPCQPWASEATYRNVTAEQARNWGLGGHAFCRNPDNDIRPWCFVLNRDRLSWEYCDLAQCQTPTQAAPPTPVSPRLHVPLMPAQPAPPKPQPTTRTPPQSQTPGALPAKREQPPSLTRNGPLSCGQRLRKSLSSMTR
Assay: Determination of Factor XIIa inhibitory activity in vitro (fluorogenic substrate H-DPro-Phe-Arg-AFC)
Type: biochemical
Settings: Human Factor XIIa (Enzyme Research Laboratories), 25° C., read-out: Human FXIIa IC50
Method: Determination of the % Inhibition for FXIIa
Factor XIIa inhibitory activity in vitro was determined using standard published methods (see e.g. Shori et al., Biochem. Pharmacol., 1992, 43, 1209; Baeriswyl et al., ACS Chem. Biol., 2015, 10 (8) 1861; Bouckaert et al., European Journal of Medicinal Chemistry 110 (2016) 181). Human Factor XIIa (Enzyme Research Laboratories) was incubated at 25° C. with the fluorogenic substrate H-DPro-Phe-Arg-AFC and various concentrations of the test compound. Residual enzyme activity (initial rate of reaction) was determined by measuring the […] and the IC50 value for the test compound was determined.

Structure (SMILES): CC(C)N(CCNc1ncc(C(=O)NCc2ccc3c(N)nccc3c2)cc1Cl)C(C)C [Example 11.20, N-((1-aminoisoquinolin-6-yl)methyl)-5-chloro-6-((2-(diisopropylamino)ethyl)amino)nicotinamide]
IC50: 1 to 3 µM

Structure (SMILES): CN(C)CCCNc1ncc(C(=O)NCc2ccc3c(N)nccc3c2)cc1Cl [Example 11.21]
IC50: 3 to 10 µM

Structure (SMILES): CC(C)N1CCN(CCCNc2ncc(C(=O)NCc3ccc4c(N)nccc4c3)cc2Cl)CC1 [Example 11.22]
IC50: 3 to 10 µM

Structure (SMILES): CN(C)CCOc1ccc(CNc2ncc(C(=O)NCc3ccc4c(N)nccc4c3)cc2Cl)cc1 [Example 11.23, N-((1-aminoisoquinolin-6-yl)methyl)-5-chloro-6-((4-(2-(dimethylamino)ethoxy)benzyl)amino)nicotinamide]
IC50: 3 to 10 µM

Structure (SMILES): CN1CCN(CCCNc2ncc(C(=O)NCc3ccc4c(N)nccc4c3)cc2Cl)CC1 [Example 11.24]
IC50: 3 to 10 µM

Structure (SMILES): COc1ccc(Nc2ncc(C(=O)NCc3ccc4c(N)nccc4c3)cc2Cl)cc1 [Example 11.25]
IC50: 10 to 40 µM

Structure (SMILES): CN(C)c1ccc(Nc2ncc(C(=O)NCc3ccc4c(N)nccc4c3)cc2Cl)cc1 [Example 11.26]
IC50: 10 to 40 µM

Structure (SMILES): Nc1nccc2cc(CNC(=O)c3cnc(Nc4ccc(N5CCOCC5)cc4)c(Cl)c3)ccc12 [Example 11.27]
IC50: 10 to 40 µM

Structure (SMILES): Nc1nccc2cc(CNC(=O)c3cnc(Oc4ccc(Cl)cc4)c(Cl)c3)ccc12 [Example 13.01]
IC50: 10 to 40 µM

Structure (SMILES): COc1ccc(Oc2ncc(C(=O)NCc3ccc4c(N)nccc4c3)cc2Cl)cc1 [Example 13.02]
IC50: 10 to 40 µM

Structure (SMILES): Nc1nccc2cc(CNC(=O)c3cnc(Oc4cccc(N5CCOCC5)c4)c(Cl)c3)ccc12 [Example 13.03]
IC50: 10 to 40 µM

Structure (SMILES): Nc1nccc2cc(CNC(=O)c3cnc(OCc4cccnc4)c(Cl)c3)ccc12 [Example 13.04]
IC50: 10 to 40 µM

Structure (SMILES): Nc1nccc2cc(CNC(=O)c3cnc(Oc4ccccc4)c(Cl)c3)ccc12 [Example 13.05]
IC50: 10 to 40 µM

Structure (SMILES): Nc1nccc2cc(CNC(=O)c3cnc(Oc4ccccc4Cl)c(Cl)c3)ccc12 [Example 13.06]
IC50: 10 to 40 µM

Structure (SMILES): N#Cc1ccc(Oc2ncc(C(=O)NCc3ccc4c(N)nccc4c3)cc2Cl)cc1 [Example 13.07]
IC50: 10 to 40 µM

Structure (SMILES): N#Cc1cccc(Oc2ncc(C(=O)NCc3ccc4c(N)nccc4c3)cc2Cl)c1 [Example 13.08]
IC50: 10 to 40 µM

Structure (SMILES): N#Cc1ccccc1Oc1ncc(C(=O)NCc2ccc3c(N)nccc3c2)cc1Cl [Example 13.09, N-((1-aminoisoquinolin-6-yl)methyl)-5-chloro-6-(2-cyanophenoxy)nicotinamide]
IC50: 3 to 10 µM

Structure (SMILES): CN(C)c1ccc(Oc2ncc(C(=O)NCc3ccc4c(N)nccc4c3)cc2Cl)cc1 [Example 13.10]
IC50: 10 to 40 µM

Structure (SMILES): COc1cccc(Oc2ncc(C(=O)NCc3ccc4c(N)nccc4c3)cc2Cl)c1 [Example 13.11]
IC50: 10 to 40 µM

Structure (SMILES): COc1ccccc1Oc1ncc(C(=O)NCc2ccc3c(N)nccc3c2)cc1Cl [Example 13.12]
IC50: 10 to 40 µM

Structure (SMILES): Cn1cnc2cc(Oc3ncc(C(=O)NCc4ccc5c(N)nccc5c4)cc3Cl)ccc21 [Example 13.13]
IC50: 3 to 10 µM

Structure (SMILES): Nc1nccc2cc(CNC(=O)c3cnc(Oc4cccc(N5CCCC5=O)c4)c(Cl)c3)ccc12 [Example 13.14]
IC50: 10 to 40 µM

Structure (SMILES): CS(=O)(=O)c1ccc(Oc2ncc(C(=O)NCc3ccc4c(N)nccc4c3)cc2Cl)cc1 [Example 13.15]
IC50: 10 to 40 µM

Structure (SMILES): CC(C)NC(=O)N(C)c1ccc(Oc2ncc(C(=O)NCc3ccc4c(N)nccc4c3)cc2Cl)cc1 [Example 13.16]
IC50: 3 to 10 µM

Structure (SMILES): CN1CCC(COc2ncc(C(=O)NCc3ccc4c(N)nccc4c3)cc2Cl)CC1 [Example 13.17]
IC50: 10 to 40 µM

Structure (SMILES): Nc1nccc2cc(CNC(=O)c3cnc(OCCN4CCCC4)c(Cl)c3)ccc12 [Example 13.18]
IC50: 10 to 40 µM

Structure (SMILES): CN(C)CCOc1ncc(C(=O)NCc2ccc3c(N)nccc3c2)cc1Cl [Example 13.19]
IC50: 10 to 40 µM

Structure (SMILES): Nc1nccc2cc(CNC(=O)c3cnc(OCc4ccccn4)c(Cl)c3)ccc12 [Example 13.20]
IC50: 10 to 40 µM

Structure (SMILES): Nc1nccc2cc(CNC(=O)c3cnc(OCc4ccncc4)c(Cl)c3)ccc12 [Example 13.21]
IC50: 10 to 40 µM

Structure (SMILES): CCN(CC)CCCOc1ncc(C(=O)NCc2ccc3c(N)nccc3c2)cc1Cl [Example 13.22]
IC50: 10 to 40 µM

Structure (SMILES): CN(C)CCCOc1ncc(C(=O)NCc2ccc3c(N)nccc3c2)cc1Cl [Example 13.23]
IC50: 10 to 40 µM

Structure (SMILES): Nc1nccc2cc(CNC(=O)c3cnc(Oc4ccc(N5CCNCC5)cc4)c(Cl)c3)ccc12 [Example 13.24, N-((1-aminoisoquinolin-6-yl)methyl)-5-chloro-6-(4-(piperazin-1-yl)phenoxy)nicotinamide]
IC50: 1 to 3 µM

Structure (SMILES): Nc1nccc2cc(CNC(=O)c3cnc(Oc4cccc(N5CCNCC5)c4)c(Cl)c3)ccc12 [Example 13.25]
IC50: 3 to 10 µM

Structure (SMILES): CN1CCCN(c2ncc(Cl)cc2C(=O)NCc2ccc3c(N)nccc3c2)CC1 [Example 16.01]
IC50: 10 to 40 µM

Structure (SMILES): Nc1nccc2cc(CNC(=O)c3cc(Cl)cnc3N3CC(O)C3)ccc12 [Example 16.02]
IC50: 10 to 40 µM

Structure (SMILES): Nc1nccc2cc(CNC(=O)c3cc(Cl)cnc3N3CCN(c4ccncc4)CC3)ccc12 [Example 16.03]
IC50: 10 to 40 µM

Now from value to compound:

IC50: 10 to 40 µM
Structure (SMILES): COc1ccccc1-c1cncc(C(=O)NCc2ccc3c(N)nccc3c2)c1 [Example 19.01, N-((1-aminoisoquinolin-6-yl)methyl)-5-(2-methoxyphenyl)nicotinamide]

IC50: 10 to 40 µM
Structure (SMILES): Nc1nccc2cc(CNC(=O)c3cncc(Br)c3)ccc12 [Example 19.02, N-((1-aminoisoquinolin-6-yl)methyl)-5-bromonicotinamide]

IC50: 10 to 40 µM
Structure (SMILES): Nc1nccc2cc(CNC(=O)c3cnc4[nH]ccc4c3)ccc12 [Example 19.03, 1H-Pyrrolo[2,3-b]pyridine-5-carboxylic acid (1-amino-isoquinolin-6-ylmethyl)-amide]

IC50: 10 to 40 µM
Structure (SMILES): Nc1nccc2cc(CNC(=O)c3cncc(Cl)c3)ccc12 [Example 19.04, N-((1-aminoisoquinolin-6-yl)methyl)-5-chloronicotinamide]

IC50: 10 to 40 µM
Structure (SMILES): Nc1nccc2cc(CNC(=O)c3cccc(Cl)c3)ccc12 [Example 19.05, N-((1-aminoisoquinolin-6-yl)methyl)-3-chlorobenzamide]

IC50: 3 to 10 µM
Structure (SMILES): Nc1nccc2cc(CNC(=O)c3cnc(Cl)c(Cl)c3)ccc12 [Example 19.06, N-(1-Amino-isoquinolin-6-ylmethyl)-5,6-dichloro-nicotinamide]

IC50: 3 to 10 µM
Structure (SMILES): Nc1nccc2cc(CNC(=O)c3cc(Cl)cnc3Oc3ccc(N4CCCC4=O)cc3)ccc12 [Example 22.01, N-((1-aminoisoquinolin-6-yl)methyl)-5-chloro-2-(4-(2-oxopyrrolidin-1-yl)phenoxy)nicotinamide]

IC50: 10 to 40 µM
Structure (SMILES): Cn1cnc2cc(Oc3ncc(Cl)cc3C(=O)NCc3ccc4c(N)nccc4c3)ccc21 [Example 22.02]

IC50: 10 to 40 µM
Structure (SMILES): CN(C)c1ccc(Oc2ncc(Cl)cc2C(=O)NCc2ccc3c(N)nccc3c2)cc1 [Example 22.03]

IC50: 10 to 40 µM
Structure (SMILES): CN(C(=O)C(C)(C)C)c1ccc(Oc2ncc(Cl)cc2C(=O)NCc2ccc3c(N)nccc3c2)cc1 [Example 22.04]

IC50: 10 to 40 µM
Structure (SMILES): Nc1nccc2cc(CNC(=O)c3cc(Cl)cnc3Oc3cccc(N4CCCC4=O)c3)ccc12 [Example 22.05]

IC50: 10 to 40 µM
Structure (SMILES): Nc1nccc2cc(CNC(=O)c3cc(Cl)cnc3OCCN3CCCCC3)ccc12 [Example 22.06]

IC50: 10 to 40 µM
Structure (SMILES): CN1CCC(COc2ncc(Cl)cc2C(=O)NCc2ccc3c(N)nccc3c2)CC1 [Example 22.07]

IC50: 10 to 40 µM
Structure (SMILES): Nc1nccc2cc(CNC(=O)c3cc(Cl)cnc3OCCN3CCCC3)ccc12 [Example 22.08]

IC50: 10 to 40 µM
Structure (SMILES): CN(C)CCOc1ncc(Cl)cc1C(=O)NCc1ccc2c(N)nccc2c1 [Example 22.09]

IC50: 10 to 40 µM
Structure (SMILES): CCN(CC)CCCOc1ncc(Cl)cc1C(=O)NCc1ccc2c(N)nccc2c1 [Example 22.10]

IC50: 10 to 40 µM
Structure (SMILES): Nc1nccc2cc(CNC(=O)c3cc(Cl)cnc3OCCCN3CCCCC3)ccc12 [Example 22.11]

IC50: 3 to 10 µM
Structure (SMILES): Nc1nccc2cc(CNC(=O)c3cc(Cl)cnc3Oc3ccc(N4CCNCC4)cc3)ccc12 [Example 22.12]

IC50: 10 to 40 µM
Structure (SMILES): Nc1nccc2cc(CNC(=O)c3cc(Cl)cnc3Oc3cccc(N4CCNCC4)c3)ccc12 [Example 22.13]

IC50: 10 to 40 µM
Structure (SMILES): CN(Cc1ccccc1)c1ncc(Cl)cc1C(=O)NCc1ccc2c(N)nccc2c1 [Example 28.01, N-((1-aminoisoquinolin-6-yl)methyl)-2-(benzyl(methyl)amino)-5-chloronicotinamide]

IC50: 10 to 40 µM
Structure (SMILES): CN(CC1CCN(c2ccncc2)CC1)c1ncc(Cl)cc1C(=O)NCc1ccc2c(N)nccc2c1 [Example 28.02, N-((1-aminoisoquinolin-6-yl)methyl)-5-chloro-2-(methyl((1-(pyridin-4-yl)piperidin-4-yl)methyl)amino)nicotinamide]
